According to US11577092B2, “Phosphor-containing drug activator activatable by a monte carlo derived X-ray exposure, system containing the activator, and methods for use” (IMMUNOLIGHT, LLC, priority 2016, dated 2023):

Columns and labels:
[1] = tested on: 4T1-HER2 cells; assay: Methylene blue staining for cell viability post treatment; format: cell-based, murine; conditions: individual components; 1 Gy of 80 kVp x-rays; phosphor 25, 50, 100 μg/mL; UVADEX 10 uM 8-MOP
Description: Methylene blue staining of viable 4T1-HER2 cells confirms that the device works well according to the target parameters identified above. A plate having six (6) wells is subjected to treatment. FIG. 11 is a photographic depiction showing of Methylene Blue stain for cell viability post treatment with X-ray, phosphors and UVADEX. One well (#1) is the control. One well (#2) has phosphor coated with EC and DLC (H100). One well (#3) has phosphor coated with EC (but no DLC). One well (#4) has drug UVADEX but no phosphors. One well (#5) has drug UVADEX and phosphors coated with EC and DLC. One well (#6) has drug UVADEX and phosphors coated with EC and no DLC.
All wells were exposed to the optimized x-ray initiation energy noted above. […] One added benefit to a dual coating is redundancy in safety of the treatment.
(§1) Other assays were used to provide independent complimentary information on cell viability, e.g. Methylene blue staining and ATP-induced Luminescence imaging (Cell-Titer-Glo® Luminescence Cell Viability Assay). The luminescence imaging permitted investigation of the cytotoxicity of psoralen activated directly with a UV lamp, and in the absence of phosphors and x-ray radiation.
FIGS. 13A-13D illustrates the efficacy of treatment in-vitro in 4T1-HER2 cells, utilizing a regimen of 1/10-diluted UVADEX (with equivalent of 10 uM 8-MOP), 50 μg/mL phosphor 1 Gy of 80 kVp x-rays. […]

[2] = tested on: 4T1-HER2 cells; assay: Cell viability by Guava flow cytometry (forward scattering) 48 hours after treatment; format: cell-based, murine; conditions: single component, 1 Gy of 80 kVp; UVADEX p=0.97, phosphors p=0.034
Protocol: (§2) In-vitro studies were conducted on plated cells following standard procedures. Cells were maintained in RPMI-1640 supplemented with 10% fetal bovine serum and L-glutamine from GIBCO (Grand Island, N.Y.) growing in a humidified atmosphere of 5% CO2. After incubation, cells were trypsinized and plated evenly onto twelve 12-well plates for 24 hours. […] Each plate had 12 wells with three wells for each of the four treatment arms. The plates were then irradiated with x-rays by placing the plate at a known distance from the x-ray source (50 cm). After irradiation, the cells were incubated on the plate for 48 hours prior to performing flow cytometry. […]
(§3) Two primary flow cytometry analyses were used, both determined at 48 hours after treatment. […] The first analysis evaluated was metabolic cell viability (herein referred to as cell viability) calculated from the number of whole cells per well as determined using forward scattering (FSC). […]
(§4) FIGS. 13A-13D illustrates the efficacy of treatment in-vitro in 4T1-HER2 cells, utilizing a regimen of 1/10-diluted UVADEX (with equivalent of 10 uM 8-MOP), 50 μg/mL phosphor 1 Gy of 80 kVp x-rays. […] In FIG. 13A, cell viability after treatment (10 μM 8-MOP equivalent dilution of UVADEX, 50 μg/mL phosphor, 1 Gy of 80 kVp radiation) as determined by Guava flow cytome cytometry is depicted. […]

[3] = tested on: 4T1-HER2 cells; assay: Annexin V positivity by flow cytometry 48 hours after treatment; format: cell-based, murine; conditions: 10 μM 8-MOP equivalent UVADEX, 50 μg/mL phosphor, 1 Gy of 80 kVp; UVADEX alone with or without x-ray
Protocol: as §2, §3, §4

[4] = tested on: CT2A (murine malignant glioma), 4T1 and KP-B (sarcoma) cell lines; assay: Cell-Titer-Glo Luminescence Cell Viability Assay on three cell lines; format: cell-based; conditions: psoralen 40 μM; UV light 0, 0.25, 0.5, 1.0 J/cm^2; N=4
Description: Guava Annexin V flow cell cytometry was used to quantify cytotoxicity in 3 murine tumor cell lines (mammary −4T1; 4T1-HER2, 4T1 stably transfected with the human HER2 oncogene; glioma-CT2A; sarcoma KP-B). The mouse breast cancer cell line 4T1 was purchased from ATCC. 4T1-HER2 was provided by Dr. Michael Kershaw (Cancer Immunology Program, Peter MacCallum Cancer Centre, Victoria, Australia) and maintained in DMEM with penicillin/streptomycin and 10% FBS The Sarcoma KP-B cell lines were derived from primary tumors LSL-Kras; p53 Flox/Flox mice (45).
as §1
FIG. 14B presents data on CT2A malignant glioma cells, for a range of treatment parameters including variable x-ray dose (0, 0.67 and 1 Gy), phosphor concentration (50 or 100 μg) and psoralen concentration (8-MOP) at 10, 20 and 40 μM respectively. […] N=4 for each cell line at each UV light condition (0, 0.25, 0.5, 1.0 J/cm^2). The psoralen concentration was 40 μM. […]

Compound	effect in methyl blue staining [1]	reduction in cell viability when radiation was added [2]	increase in Annexin V staining (apoptotic activity) [3]	viable cells after UV light activated psoralen [4]
COc1c2occc2cc2ccc(=O)oc12 [UVADEX, 8-methoxypsoralen]	little effect	no significant effect	negligible apoptotic activity	–
O=c1ccc2cc3ccoc3cc2o1 [psoralen]	–	–	–	reduce viable cells in 3 cell lines
